What was measured:
Assay in all cases: relative viability (nuclei count vs DMSO), 5 days (fraction); higher = more cells survive
Etoposide + Tozasertib = compound: COc1cc([C@@H]2c3cc4c(cc3[C@@H](O[C@@H]3O[C@@H]5CO[C@@H](C)O[C@H]5[C@H](O)[C@H]3O)[C@H]3COC(=O)[C@H]23)OCO4)cc(OC)c1O [Etoposide] + Cc1cc(Nc2cc(N3CCN(C)CC3)nc(Sc3ccc(NC(=O)C4CC4)cc3)n2)n[nH]1 [Tozasertib] (partner 0.1 µM)
Procedure, shortened: (§1)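 Relative viability divides the nuclei count in treated wells by that in vehicle wells. Lung cancer cell lines were seeded in 1536-well plates, dosed by pin tool the next day, and fixed and stained after 5 days in one step with final 0.05% Triton X-100, 1% formaldehyde and 1 ug/ml Hoechst. Dosing was a single drug or a fixed anchor-drug dose plus five library-drug doses (not always all listed) in √10 steps, and values are medians of duplicate plates imaged at 4×.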

Bleomycin + Navitoclax = compound: CC1=C(N=C(N=C1N)[C@H](CC(=O)N)NC[C@@H](C(=O)N)N)C(=O)N[C@@H]([C@H](C2=CN=CN2)OC3C(C(C(C(O3)CO)O)O)OC4C(C(C(C(O4)CO)O)OC(=O)N)O)C(=O)N[C@H](C)[C@H]([C@H](C)C(=O)N[C@@H]([C@@H](C)O)C(=O)NCCC5=NC(=CS5)C6=NC(=CS6)C(=O)NCCC[S+](C)C)O [Bleomycin] + CC1(C)CCC(c2ccc(Cl)cc2)=C(CN2CCN(c3ccc(C(=O)NS(=O)(=O)c4ccc(N[C@H](CCN5CCOCC5)CSc5ccccc5)c(S(=O)(=O)C(F)(F)F)c4)cc3)CC2)C1 [Navitoclax] (partner 0.5 µM); conditions: main component drawn
Procedure, shortened: as §1

Etoposide + Phenformin = compound: COc1cc([C@@H]2c3cc4c(cc3[C@@H](O[C@@H]3O[C@@H]5CO[C@@H](C)O[C@H]5[C@H](O)[C@H]3O)[C@H]3COC(=O)[C@H]23)OCO4)cc(OC)c1O [Etoposide] + N=C(N)NC(=N)NCCc1ccccc1 [Phenformin] (partner 250 µM)
Procedure, shortened: as §1

Etoposide + Decitabine = compound: COc1cc([C@@H]2c3cc4c(cc3[C@@H](O[C@@H]3O[C@@H]5CO[C@@H](C)O[C@H]5[C@H](O)[C@H]3O)[C@H]3COC(=O)[C@H]23)OCO4)cc(OC)c1O [Etoposide] + Nc1ncn([C@H]2C[C@H](O)[C@@H](CO)O2)c(=O)n1 [Decitabine] (partner 2 µM)
Procedure, shortened: as §1

UMC-11
relative viability (Etoposide + Tozasertib; first compound 0.01 µM): 0.209
relative viability (Etoposide + Tozasertib; first compound 0.03162 µM): 0.205
relative viability (Etoposide + Tozasertib; first compound 0.1 µM): 0.186
relative viability (Etoposide + Tozasertib; first compound 0.3162 µM): 0.206
relative viability (Etoposide + Tozasertib; first compound 1 µM): 0.235
relative viability (Bleomycin + Navitoclax; first compound 0.01 µM): 0.376
relative viability (Bleomycin + Navitoclax; first compound 0.03162 µM): 0.264
relative viability (Bleomycin + Navitoclax; first compound 0.1 µM): 0.286
relative viability (Bleomycin + Navitoclax; first compound 0.3162 µM): 0.22
relative viability (Bleomycin + Navitoclax; first compound 1 µM): 0.205
relative viability (Etoposide + Phenformin; first compound 0.01 µM): 0.333
relative viability (Etoposide + Phenformin; first compound 0.03162 µM): 0.341
relative viability (Etoposide + Phenformin; first compound 0.1 µM): 0.275
relative viability (Etoposide + Phenformin; first compound 0.3162 µM): 0.233
relative viability (Etoposide + Phenformin; first compound 1 µM): 0.207
relative viability (Etoposide + Decitabine; first compound 0.01 µM): 0.462
relative viability (Etoposide + Decitabine; first compound 0.03162 µM): 0.621
relative viability (Etoposide + Decitabine; first compound 0.1 µM): 0.355
relative viability (Etoposide + Decitabine; first compound 0.3162 µM): 0.356
relative viability (Etoposide + Decitabine; first compound 1 µM): 0.319

Source: the supplement of paper PMC10307832
